Where two headings read alike, the source gives them in different places.

Our source for the EC50 values is paper PMC5764437, “Discovery of novel, orally bioavailable, antileishmanial compounds using phenotypic screening” (PLoS Neglected Tropical Diseases, 2017).

For assay [1], the system named is bloodstream form Lister 427 T. brucei. Put plainly: Growth inhibition of T. brucei bloodstream forms (SYBR Green I). Format: cell-based. The conditions noted are these: Trypanosoma brucei, bloodstream form; mean ± standard deviation, n = 2; read-out: T. brucei EC50. How it is done: L. mexicana (MNYZ/BZ/62/M379) or L. donovani (LdBob strain) parasites expressing the Renilla luciferase gene from a rRNA gene locus were used to infect J774A.1 macrophages. Growth of intracellular amastigotes was measured using a luminescence assay, as detailed previously. The growth inhibitor activities of compounds were tested against bloodstream form Lister 427 T. brucei in 96-well plates containing 1 X 10^5 parasites per well in 0.2 ml HMI-11 medium (Gibco/Thermo Fisher). Compounds (2 μl volumes in DMSO) were added to the parasites using serial 3-fold dilutions to cover a range of concentrations from about 10 μM to 1 nM. After 48 h incubation at 37°C under a humidified 5% CO2 atmosphere, 10 μl of 10% Triton X-100 and 100 X stock SYBR Green I (Sigma-Aldrich) in PBS was added and florescence measured (excitation 497 nm; emission 520 nm) after 1 h incubation in the dark using a Spectra Max Gemini XPS fluorimeter (Molecular Devices). Data were log transformed and EC50 values were determined using GraphPad Prism 6 (GraphPad Software). In the absence of growth inhibiting compounds, the parasites grew from an initial density of 5 X 10^5 cells/mL to ~3 X 10^6 cells/mL.

For assay [2] the test system is unchanged. The arrangement: method as in PMID 23484493. To be noted: bloodstream form of Trypanosoma brucei; read-out: T. brucei bloodstream form EC50 (previously reported); cited from earlier work.

Consider `COc1ccc(-c2c(C(F)(F)F)oc3c(CN4CCN(C)CC4)c(O)ccc3c2=O)cc1OC` [Compound 4], for which, in assay [1], the half-maximal effective concentration (EC50) came to 11 ± 1 µM.

Regarding `Cc1ccc(-c2nc3ccccc3s2)cc1NC(=O)c1cc([N+](=O)[O-])c(N2CCN(C)CC2)cc1Cl` [Compound 5], the 50% effective concentration (EC50) in assay [2] is 0.027 µM.
